This note sets out measurements from ChEMBL document CHEMBL6092200, “Structure-guided inhibitor design targeting CntL provides the first chemical validation of the staphylopine metallophore system in bacterial metal acquisition” (Eur J Med Chem, 2024).

The target of assay [1] is T1, D-histidine 2-aminobutanoyltransferase (Staphylococcus aureus (strain Mu50 / ATCC 700699)) (UniProt A0A0H3JXA8).
T1 sequence (whole entry): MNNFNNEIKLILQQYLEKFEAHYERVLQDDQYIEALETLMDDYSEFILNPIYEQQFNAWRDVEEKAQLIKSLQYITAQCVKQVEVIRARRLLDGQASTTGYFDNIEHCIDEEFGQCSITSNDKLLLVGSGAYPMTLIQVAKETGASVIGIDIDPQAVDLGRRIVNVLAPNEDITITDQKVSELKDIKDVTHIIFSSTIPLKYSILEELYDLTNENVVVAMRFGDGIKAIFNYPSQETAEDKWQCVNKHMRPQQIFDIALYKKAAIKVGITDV
As to the kind of experiment: Inhibition of N-terminal his6-tagged Staphylococcus aureus ATCC 700699 CntL assessed as reduction in intracellular nickel ion level at 100 uM by ICP-MS analysis. The class given is cell-based.

The target of assay [2] is T2, D-histidine 2-aminobutanoyltransferase (Staphylococcus aureus (strain Mu50 / ATCC 700699), UniProt A0A0H3JXA8).
T2 sequence (A0A0H3JXA8 whole entry): T1 sequence (whole entry)
The assay can be described thus: Inhibition of N-terminal his6-tagged Staphylococcus aureus ATCC 700699 CntL using SAM as substrate preincubated with compound for 10 mins followed by substrate addition and measured after 25 mins in presence of NADPH by microplate reader analysis.

The target in assay [3] is T1, D-histidine 2-aminobutanoyltransferase (Staphylococcus aureus (strain Mu50 / ATCC 700699)). As to the kind of experiment: Binding affinity to N-terminal his6-tagged Staphylococcus aureus ATCC 700699 CntL assessed as change in enthalpy by ITC analysis. (In ITC the heat of successive injections is recorded.)
For assay [4] the target is unchanged. The assay can be described thus: Binding affinity to N-terminal his6-tagged Staphylococcus aureus ATCC 700699 CntL assessed as change in entropy by ITC analysis.
Assay [5] deals with Staphylococcus aureus. The assay can be described thus: Antibacterial activity against Staphylococcus aureus […] assessed as effect on bacterial growth at 100 uM incubated for 12 hrs in presence of dCDM medium. In kind it is functional, organism-based.
The target in assay [6] is T1, D-histidine 2-aminobutanoyltransferase (Staphylococcus aureus (strain Mu50 / ATCC 700699)). As to the kind of experiment: Induction of thermal stabilization of Staphylococcus aureus ATCC 700699 CntL assessed as change in melting temperature by fluorescence-based thermal shift assay.
In assay [7] the target is T3, L-histidine 2-aminobutanoyltransferase (Pseudomonas aeruginosa) (UniProt Q9HUX4).
T3 sequence (whole entry): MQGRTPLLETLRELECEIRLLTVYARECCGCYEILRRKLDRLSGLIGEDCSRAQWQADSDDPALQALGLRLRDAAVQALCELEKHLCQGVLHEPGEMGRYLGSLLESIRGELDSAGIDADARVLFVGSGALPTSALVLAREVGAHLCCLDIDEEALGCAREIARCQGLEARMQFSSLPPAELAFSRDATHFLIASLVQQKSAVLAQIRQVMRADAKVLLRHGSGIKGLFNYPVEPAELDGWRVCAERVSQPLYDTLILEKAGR
As to the kind of experiment: Induction of thermal stabilization of N-terminal his6-tagged Pseudomonas aeruginosa CntL assessed as increase in melting temperature at 500 uM by fluorescence-based thermal shift assay.

Assay [8] concerns the target T1, D-histidine 2-aminobutanoyltransferase (Staphylococcus aureus (strain Mu50 / ATCC 700699)). As to the kind of experiment: Inhibition of N-terminal his6-tagged Staphylococcus aureus ATCC 700699 CntL assessed as reduction in intracellular cobalt ion level at 100 uM by ICP-MS analysis. The class given is cell-based.
For assay [9], the target named is T2, D-histidine 2-aminobutanoyltransferase. As to the kind of experiment: Binding affinity to N-terminal his6-tagged Staphylococcus aureus ATCC 700699 CntL assessed as dissociation constant by ITC analysis.
Assay [10] concerns Staphylococcus aureus. The assay can be described thus: Antibacterial activity against Staphylococcus aureus […] assessed as effect on bacterial growth at 100 uM incubated for 12 hrs in presence of chemically defined medium. The class given is functional, organism-based.
Assay [11] has as its system Staphylococcus aureus. As to the kind of experiment: Antibacterial activity against Staphylococcus aureus […] assessed as effect on bacterial growth at 100 uM incubated for 12 hrs in presence of LB medium. In kind it is functional, organism-based.
Assay [12] concerns the target T1, D-histidine 2-aminobutanoyltransferase (Staphylococcus aureus (strain Mu50 / ATCC 700699)). The assay can be described thus: Inhibition of N-terminal his6-tagged Staphylococcus aureus ATCC 700699 CntL assessed as reduction in intracellular iron level at 100 uM by ICP-MS analysis. The class given is cell-based.
Assay [13] has the same target. As to the kind of experiment: Binding affinity to N-terminal his6-tagged Staphylococcus aureus ATCC 700699 CntL assessed as gibbs free energy change by ITC analysis.
For assay [14], the target named is T3, L-histidine 2-aminobutanoyltransferase (Pseudomonas aeruginosa). As to the kind of experiment: Binding affinity to N-terminal his6-tagged Pseudomonas aeruginosa CntL assessed as change in gibbs free energy by ITC analysis.
Assay [15] has the same target. The assay can be described thus: Binding affinity to N-terminal his6-tagged Pseudomonas aeruginosa CntL assessed as change in entropy by ITC analysis.
In assay [16] the target is T1, D-histidine 2-aminobutanoyltransferase (Staphylococcus aureus (strain Mu50 / ATCC 700699)). As to the kind of experiment: Induction of thermal stabilization of Staphylococcus aureus ATCC 700699 CntL assessed as change in melting temperature at 100 uM by fluorescence-based thermal shift assay.
The target is the same in assay [17]. As to the kind of experiment: Inhibition of N-terminal his6-tagged Staphylococcus aureus ATCC 700699 CntL at 5 uM using SAM as substrate preincubated with compound for 10 mins followed by substrate addition and measured after 25 mins in presence of NADPH by microplate reader analysis relative to control. As to conditions: time 35.0 min.
Assay [18] concerns the target T4, L-histidine 2-aminobutanoyltransferase (Pseudomonas aeruginosa, UniProt Q9HUX4).
T4 sequence (Q9HUX4 whole entry): T3 sequence (whole entry)
The assay can be described thus: Binding affinity to N-terminal his6-tagged Pseudomonas aeruginosa CntL assessed as dissociation constant by ITC analysis.

For assay [19], the target named is T3, L-histidine 2-aminobutanoyltransferase (Pseudomonas aeruginosa). The assay can be described thus: Binding affinity to N-terminal his6-tagged Pseudomonas aeruginosa CntL assessed as change in enthalpy by ITC analysis.
Assay [20] addresses T1, D-histidine 2-aminobutanoyltransferase (Staphylococcus aureus (strain Mu50 / ATCC 700699)). As to the kind of experiment: Induction of thermal stabilization of Staphylococcus aureus ATCC 700699 CntL assessed as melting temperature in presence of D-His by fluorescence-based thermal shift assay.
For assay [21] the target is unchanged. As to the kind of experiment: Induction of thermal stabilization of Staphylococcus aureus ATCC 700699 CntL assessed as melting temperature in presence of L-His by fluorescence-based thermal shift assay.
The target is the same in assay [22]. As to the kind of experiment: Induction of thermal stabilization of Staphylococcus aureus ATCC 700699 CntL assessed as melting temperature in presence of xNA by fluorescence-based thermal shift assay.
Assay [23] has the same target. As to the kind of experiment: Induction of thermal stabilization of Staphylococcus aureus ATCC 700699 CntL assessed as change in melting temperature in presence of histidine by fluorescence-based thermal shift assay.
For assay [24] the target is unchanged. As to the kind of experiment: Induction of thermal stabilization of Staphylococcus aureus ATCC 700699 CntL assessed as melting temperature by fluorescence-based thermal shift assay.

Activity calls are given as the source filed them. The calls are words filed in the database; no cut-off is given here. Where only a bound is given, the exact number is not on record here.

By inhibition is commonly meant the relative decrease from the control value, in per cent. One may read the IC50 as the concentration needed to halve the response being measured. The term ΔTm denotes the change in melting temperature against a reference sample. In general, Kd refers to a measure of binding affinity in units of concentration. As a reminder, the Tm is the temperature at the midpoint of the melting transition.

As for `Nc1nc(Cl)nc2c1ncn2[C@@H]1O[C@H](CSCCN[C@@H](Cc2c[nH]cn2)C(=O)O)[C@@H](O)[C@H]1O`, the inhibition entry in assay [1], in assay [8] and in assay [12] was “Active” each time. In addition, the IC50 in [2] is roughly 60 nM. For the same compound, the deltaH in assay [3] was -10.9 kcal/mol. Besides, the -TdeltaS in [4] was found to be 0.448 kcal/mol. Moreover, the outcome in assay [5], in assay [10] and in assay [11] was inactive. Further, the ΔTm in [6] is 9.4 °C. For the same compound, the outcome in assay [7] was Active. In addition, the Kd in assay [9] was 21 nM. The deltaG in assay [13] was -10.5 kcal/mol.
Turning to `Nc1ncnc2c1ncn2[C@@H]1O[C@H](CSCCN[C@@H](Cc2c[nH]cn2)C(=O)O)[C@@H](O)[C@H]1O`, the IC50 in assay [2] was found to be 60 nM. Besides, the deltaG in assay [14] is -9.1 kcal/mol; in assay [13] it was -10.1 kcal/mol. The deltaH in [3] is -17.8 kcal/mol; in [19], -4.25 kcal/mol. Also, the values for the -TdeltaS in [15] and in assay [4] were -4.84 kcal/mol and 7.72 kcal/mol, respectively. The figures for the ΔTm in [6] and in assay [16] were 1 °C and 8.4 °C, respectively. The result in assay [7] was Active. The Kd was determined as 41 nM in [9] and 220 nM in assay [18]. Besides, the inhibition in assay [17] was 92%.
For the compound `COc1nc(N)c2ncn([C@@H]3O[C@H](CSCCCN[C@@H](Cc4c[nH]cn4)C(=O)O)[C@@H](O)[C@H]3O)c2n1`, the ΔTm in assay [6] was 4.7 °C.
Take `Nc1ncnc2c1ncn2[C@@H]1O[C@H](CSCCC(=O)N[C@@H](Cc2c[nH]cn2)C(=O)O)[C@@H](O)[C@H]1O`: in assay [16], the ΔTm came to 1.7 °C. The inhibition in [17] was less than 20%.
For `Nc1ncnc2c1ncn2[C@@H]1O[C@H](CSCCCN[C@@H](Cc2c[nH]cn2)C(=O)O)[C@@H](O)[C@H]1O`, the IC50 in assay [2] stood at 120 nM. Moreover, the deltaG is -8.48 kcal/mol in assay [14] and -9.2 kcal/mol in assay [13]. In addition, the deltaH in assay [3] was -18.3 kcal/mol; in assay [19], -8.65 kcal/mol. For the same compound, the -TdeltaS in [15] was determined as 0.149 kcal/mol; in assay [4] it was 9.07 kcal/mol. Moreover, the thermal shift (ΔTm) turned out to be 0.7 °C in assay [6] and 7.7 °C in assay [16]. For the same compound, the result in [7] was Active. Besides, the values for the Kd in assay [9] and in assay [18] were 180 nM and 600 nM, respectively. Moreover, the inhibition in assay [17] amounted to 96%.
For the compound `CSC[C@H]1O[C@@H](n2cnc3c(N)ncnc32)[C@H](O)[C@@H]1O` [METHYLTHIOADENOSINE], the deltaG in assay [14] is -6.55 kcal/mol; in [13], -6.84 kcal/mol. Also, the values for the deltaH in assay [3] and in [19] were -23.3 kcal/mol and -6.63 kcal/mol, respectively. Moreover, the Tm stood at 59 °C in assay [20], 59 °C in [21], 59.3 °C in assay [22] and 56.3 °C in assay [24]. In addition, the -TdeltaS worked out at 0.078 kcal/mol in assay [15] and 16.4 kcal/mol in [4]. For the same compound, the Kd came out at 10900 nM in [9] and 15500 nM in [18]. Besides, in assay [23], the shift in melting temperature (ΔTm) turned out to be 3.4 °C.
Regarding `Nc1nc(Cl)nc2c1ncn2[C@@H]1O[C@H](CSCCCNC(Cc2c[nH]cn2)C(=O)O)[C@@H](O)[C@H]1O` (single isomer, unassigned), the ΔTm in [6] was 8.4 °C. Besides, the outcome in assay [7] was Active.
For `Nc1ncnc2c1ncn2[C@@H]1O[C@H](CSCCCNC(=O)[C@H](N)Cc2c[nH]cn2)[C@@H](O)[C@H]1O`, the ΔTm in assay [16] came to 0.7 °C. Moreover, the inhibition in assay [17] is less than 20%.
